Usually EC50 stands for the concentration at which the effect is half-maximal.

Molecules are shown by their SMILES. Some results are limits rather than exact numbers.

For 40 compounds, EC50 results are on record in patent US11596611B2, “Hepatitis B antiviral agents” (ENANTA PHARMACEUTICALS, INC., priority 2017, dated 2023).

One test has as its system HBV. Briefly: HepAD38 antiviral assay: reduction of viral product accumulation (virion DNA by qPCR, HBsAg or HBeAg by ELISA). It counts as cell-based, hepatitis B virus. Particulars: Hepatitis B virus, 120 h; HepAD38 cells, five days after compound addition; 50% reduction of viral product vs no drug controls; read-out: HepAD38 EC50. Here is the method:
Methods: HepAD38 cells are maintained as previously reported (Ladner et al, Antimicrob. Agents Chemother. 1997, […], 1715). Briefly, cells are passaged upon attaining confluency in DMEM/F12 media in the presence of 10% FBS, Penn/Strep, 250 μg/mL G418, and 1 ug/ml tetracycline. Novel compounds are screened by first washing cells three times with PBS to remove tetracycline, and plating in 96 well plates at 35,000 cells/well. Compounds dissolved in DMSO are then diluted 1:200 into wells containing cells. Five days after compound addition, material is harvested for analysis. For an extended 8 days analysis, cells are plated and treated as described above, but media and compound are refreshed on d2 and d5 post initial treatment.
On harvest day, virion DNA is obtained by lysing with Sidestep Lysis and Stabilization Buffer and then quantified via quantitative real time PCR. Commercially available ELISA kits are used to quantitate the viral proteins HBsAg (Alpco) or HbeAg (US Biological) by following the manufacturer's recommended protocol after diluting samples to match the linear range of their respective assays.
For orientation: Quantitative PCR measures a nucleic acid by following its amplification.
Take `C[C@H](O)[C@H](O)[C@]1(O)C2CCC1C[C@@H](S(=O)(=O)c1cc(C(=O)Nc3cc(F)c(F)c(F)c3)ccc1Cl)C2` (single isomer, unassigned) [Example 108]: the EC50 is under 0.104 µM.

As for `CC(=O)C(=O)[C@@]1(O)C2CC[C@H]1C[C@H](S(=O)(=O)c1cc(C(=O)Nc3ccc(F)c(F)c3)ccc1Cl)C2` [Example 336], the half-maximal effective concentration (EC50) is under 0.104 µM.

For `O=C(Nc1ccc(F)c(F)c1)c1ccc(Cl)c(S(=O)(=O)C2CC(O)(CCO)C2)c1` (stereo not shown) [Example 240], the EC50 is over 0.2 µM.

Turning to `O=C(O)CC1(O)CC(S(=O)(=O)c2cc(C(=O)Nc3ccc(F)c(F)c3)ccc2Cl)C1` (stereo not shown) [Example 243], the EC50 is over 0.2 µM.

Turning to `CC[C@H](O)[C@@H](O)[C@]1(O)C2CCC1C[C@@H](S(=O)(=O)c1cc(C(=O)Nc3ccc(F)c(F)c3)ccc1Cl)C2` [Example 334], the EC50 is under 0.104 µM.

In the case of `COC(=O)CCNC(=O)[C@H]1C[C@@H](S(=O)(=O)c2cc(C(=O)Nc3ccc(F)c(F)c3)ccc2Cl)C1` [Example 257b], the EC50 was over 0.2 µM.

`COC(=O)N1C[C@H](O)C[C@H]1C(=O)NCC(O)[C@]1(O)C2CCC1C[C@@H](S(=O)(=O)c1cc(C(=O)Nc3cc(F)c(F)c(F)c3)ccc1Cl)C2` (stereo partly shown) [Example 107]: the EC50 was over 0.2 µM.

Turning to `O=C(Nc1ccc(F)c(F)c1)c1ccc(Cl)c(S(=O)(=O)[C@H]2CC3CCC(C2)[C@H]3O)c1` (single isomer, unassigned) [Example 206], the EC50 fell in the range of 0.1 to 0.2 µM.

Take `O=C(Nc1ccc(F)c(F)c1)c1ccc(Cl)c(S(=O)(=O)[C@H]2C[C@H](CO)C2)c1` [Example 252a]: the EC50 is over 0.2 µM.

`O=C(Nc1ccc(F)c(F)c1)c1ccc(Cl)c(S(=O)(=O)[C@H]2CC3CC[C@@H](C2)[C@@]3(O)C(O)Cn2cccn2)c1` (stereo partly shown) [Example 310]: the EC50 is over 0.2 µM.

Consider `C[C@H](O)C(=O)O[C@@H](C)C(=O)NC[C@]1(O)C2CCC1C[C@@H](S(=O)(=O)c1cc(C(=O)Nc3cc(F)c(F)c(F)c3)ccc1Cl)C2` (single isomer, unassigned) [Example 106], for which the EC50 is under 0.104 µM.

On to `COC(=O)[C@H](C)NC(=O)C1CC(S(=O)(=O)c2cc(C(=O)Nc3ccc(F)c(F)c3)ccc2Cl)C1` (stereo partly shown) [Example 255], for which the concentration giving a half-maximal response (EC50) is over 0.2 µM.

Regarding `C[C@]1(O)C2CCC1C[C@@H](S(=O)(=O)c1cc(C(=O)Nc3ccc(F)c(F)c3)c(-c3ccccc3)cc1Cl)C2` [Example 101], the EC50 was over 0.2 µM.

Consider `COC(=O)N[C@@H](Cc1ccccc1)C(=O)N1C2CCC1CC(S(=O)(=O)c1cc(C(=O)Nc3cc(F)c(F)c(F)c3)ccc1Cl)C2` (stereo partly shown) [Example 154], for which the EC50 is over 0.2 µM.

On to `CC(C)([C@H]1CC[C@@H](O)CC1)S(=O)(=O)c1cc(C(=O)Nc2ccc(F)c(F)c2)ccc1Cl` [Example 235], for which the half-maximal effective concentration (EC50) is over 0.2 µM.

Consider `O=C(Nc1ccc(F)c(F)c1)c1ccc(Cl)c(S(=O)(=O)[C@H]2CC3CCC(C2)[C@]3(O)[C@H](O)c2ccc(F)cn2)c1` (single isomer, unassigned) [Example 291b], for which the EC50 was under 0.104 µM.

On to `COC(=O)C[C@]1(O)C2CCC1C[C@@H](S(=O)(=O)c1cc(C(=O)Nc3cc(F)c(F)c(F)c3)ccc1Cl)C2` [Example 32], for which the EC50 was over 0.2 µM.

Regarding `COC(=O)N[C@@H](C)C(=O)NC[C@]1(O)C2CCC1C[C@@H](S(=O)(=O)c1cc(C(=O)Nc3ccc(F)c(F)c3)ccc1Cl)C2` [Example 159], the EC50 is under 0.104 µM.

As for `O=C(Nc1ccc(F)c(F)c1)c1ccc(Cl)c(S(=O)(=O)C2CC(C(=O)NCCO)C2)c1` (stereo not shown) [Example 254], the EC50 is over 0.2 µM.

On to `C[C@H](O)COCC1(O)CCC(CS(=O)(=O)c2cc(C(=O)Nc3ccc(F)c(F)c3)ccc2Cl)CC1` (stereo partly shown) [Example 198], for which the EC50 was in the range of 0.1 to 0.2 µM.

As for `C[C@@]1(O)C2CC[C@H]1C[C@H](S(=O)(=O)c1cc(C(=O)Nc3ccc(F)c(C(F)(F)F)c3)ccc1Cl)C2` [Example 31], the EC50 was in the range of 0.1 to 0.2 µM.

Regarding `C[C@@H](CO)NC(=O)CC1(O)CC(S(=O)(=O)c2cc(C(=O)Nc3ccc(F)c(F)c3)ccc2Cl)C1` (stereo partly shown) [Example 247], the EC50 was over 0.2 µM.

With `C[C@@H](O)[C@H](O)[C@]1(O)C2CCC1C[C@@H](S(=O)(=O)c1cc(C(=O)Nc3cc(F)c(F)c(F)c3)ccc1Cl)C2` (single isomer, unassigned) [Example 109], the concentration giving a half-maximal response (EC50) is under 0.104 µM.

As for `O=C(Nc1ccc(F)c(F)c1)c1ccc(Cl)c(S(=O)(=O)[C@H]2CC3CCC(C2)[C@]3(O)CO[C@@H]2O[C@H](C(=O)O)[C@@H](O)[C@H](O)[C@H]2O)c1` [Example 330], the 50% effective concentration (EC50) is over 0.2 µM.

Take `CC(O)[C@@]1(O)C2CC[C@H]1C[C@H](S(=O)(=O)c1cc(C(=O)Nc3cc(F)c(F)c(F)c3)ccc1Cl)C2` (mixture of isomers) [Example 210]: the EC50 is under 0.104 µM.

Consider `O=C(Nc1ccc(F)c(F)c1)c1ccc(Cl)c(S(=O)(=O)[C@@H]2CC3CC[C@@H](C2)[C@@]3(O)C(O)c2ncccc2C(F)F)c1` (stereo partly shown) [Example 349], for which the half-maximal effective concentration (EC50) is 0.1 to 0.2 µM.

Turning to `C[C@]1(O)C2CCC1C[C@@H](S(=O)(=O)c1cc(C(=O)Nc3ccc(C#N)c(F)c3)ccc1Cl)C2` [Example 45], the EC50 is over 0.2 µM.

`CC(C)(C)OC(=O)N1CC[C@@H](O)[C@H]1C(=O)NC[C@@]1(O)C2CC[C@H]1C[C@H](S(=O)(=O)c1cc(C(=O)Nc3cc(F)c(F)c(F)c3)ccc1Cl)C2` [Example 76]: the EC50 is under 0.104 µM.

Consider `C[C@@]1(O)C2CC[C@H]1C[C@H](S(=O)(=O)c1cc(C(=O)Nc3ccc(F)c(F)c3)c(-c3ccncc3)cc1Cl)C2` [Example 132], for which the EC50 was over 0.2 µM.

For `O=C(Nc1cc(F)c(F)c(F)c1)c1ccc(Cl)c(S(=O)(=O)[C@@H]2CC3CC[C@@H](C2)[C@@]3(O)CNC(=O)C2CC2(O)CO)c1` (stereo partly shown) [Example 67], the EC50 was over 0.2 µM.

Turning to `C[C@H](O)COCC1(O)CC(S(=O)(=O)c2cc(C(=O)Nc3ccc(F)c(F)c3)ccc2Cl)C1` (stereo partly shown) [Example 230], the half-maximal effective concentration (EC50) is over 0.2 µM.

Take `O=C(Nc1ccc(F)c(F)c1)c1ccc(Cl)c(S(=O)(=O)[C@H]2CC3CCC(C2)[C@]3(O)CNC(=O)C2CC(O)C2)c1` (stereo partly shown) [Example 171]: the half-maximal effective concentration (EC50) is over 0.2 µM.

For `COC(=O)CNC(=O)[C@H]1C[C@H](S(=O)(=O)c2cc(C(=O)Nc3ccc(F)c(F)c3)ccc2Cl)C1` [Example 253a], the EC50 is over 0.2 µM.

For `CCCCc1cc(Cl)c(S(=O)(=O)[C@H]2CC3CCC(C2)[C@@]3(C)O)cc1C(=O)Nc1ccc(F)c(F)c1` [Example 103], the EC50 was under 0.104 µM.

For the compound `CC(C)N(C[C@]1(O)C2CCC1C[C@@H](S(=O)(=O)c1cc(C(=O)Nc3ccc(F)c(F)c3)ccc1Cl)C2)C(C)C` [Example 342], the EC50 was under 0.104 µM.

Consider `Cc1ccc(C(=O)Nc2ccc(F)c(F)c2)cc1S(=O)(=O)[C@H]1CC2CCC(C1)[C@@]2(C)O` [Example 47], for which the EC50 fell in the range of 0.1 to 0.2 µM.

Turning to `COC(=O)CNC(=O)C[C@]1(O)C2CCC1C[C@@H](S(=O)(=O)c1cc(C(=O)Nc3cc(F)c(F)c(F)c3)ccc1Cl)C2` [Example 119], the concentration giving a half-maximal response (EC50) was over 0.2 µM.

On to `COC(=O)NCCC(=O)NC[C@@]1(O)C2CC[C@H]1C[C@H](S(=O)(=O)c1cc(C(=O)Nc3cc(F)c(F)c(F)c3)ccc1Cl)C2` [Example 80], for which the concentration for a half-maximal effect (EC50) was under 0.104 µM.

In the case of `O=C(Nc1ccc(F)c(F)c1)c1ccc(Cl)c(S(=O)(=O)[C@H]2CC3CCC(C2)[C@]3(O)C(O)CN2CCOC2=O)c1` (stereo partly shown) [Example 315], the EC50 is over 0.2 µM.

The same test, now with this note: Hepatitis B virus, HePAD38, 120 h, read-out: HepAD38 EC50 (μM).
With `CC1(C)OC[C@H](CN2C3CCC2CC(S(=O)(=O)c2cc(C(=O)Nc4cc(F)c(F)c(F)c4)ccc2Cl)C3)O1` (single isomer, unassigned) [Example 144], the EC50 fell in the range of 0.1 to 0.2 µM.
